Results: patent US20070167412A1, “HALOCOMBSTATINS AND METHODS OF SYNTHESIS THEREOF” (ARIZONA BOARD OF REGENTS, priority 2003, published 2007)
In brackets after ≈: the same amount, converted by molar mass.

Assays:
[1] = test system: human umbilical vein endothelial cells (HUVEC); test: Matrigel cord formation assay; assay type: cell-based; design: key to Lengths of Cords: −: No Cords; +: Small; ++: ˜50% of Control; +++: Same as Control; conditions: for Lengths of Cords: 24 hours, compared to untreated controls
Description: (§1) In vitro Matrigel antiangiogenesis assays were implemented according to the Developmental Therapeutics Program NCI/NIH protocols known to one of skill in the art. Matrigel, a basement membrane matrix, was obtained from BD Biosciences. Growth inhibition and cord formation assays were Conducted using human umbilical vein endothelial cells obtained from GlycoTeCh. HUVEC cells were grown in EGM-2 medium.
(§2) An aliquot of sixty microliters was placed in each well of an ice-cold 96-well plate. The plates were then left for 15 minutes at room temperature, then incubated for 30 minutes at 37° C. to permit the matrigel to polymerize. Meanwhile, HUVEC cells were harvested and diluted to a concentration of 2×10^5 cells/ml. A solution of 100 μL containing the compounds to be tested was added next. After 24 hours incubation, pictures were taken for each concentration using an inverted Nikon Diaphot microscope and D100 digital camera. Drug effect was assessed, compared to untreated controls, by measuring the length of cords formed and number ofjunctions.

[2] = test system: human umbilical vein endothelial cells (HUVEC); test: Matrigel cord formation assay; assay type: cell-based; design: key: −: No Cords; +: Small; ++: ˜50% of Control; +++: Same as Control; conditions: 24 hours, compared to untreated controls
Description: as §1, §2

[3] = test system: human umbilical vein endothelial cells (HUVEC); test: HUVEC growth inhibition, sulforhodamine B assay; assay type: cell-based
Description: as §1
The standard sulforhodamine B assay (see Cancer Cell Line Procedures above) was used to evaluate results using HUVEC cells. IC50 or ED50 (drug concentration causing 50% inhibition) was calculated from the plotted data.

[4] = test system: KAT-4; test: human anaplastic thyroid carcinoma cell line inhibition; assay type: cell-based
Description: (§3) Inhibition of human cancer cell growth was assessed using the National Cancer Institute's standard sulforhodamine B assay. After 48 hours, the plates were fixed with trichloracetic acid, stained with sulforhodamine B and read with an automated microplate reader. A growth inhibition of 50% (GI50 or the drug concentration causing a 50% reduction in the net protein increase) was calculated from optical density data with Inmunosoft software. Inhibition of the mouse leukemia P388 cells was assessed in a 10% horse serum/Fisher medium soution for 24 hours, followed by a 48 hour incubation with serial dilutions of the compounds. Cell growth inhibition (ED50) was then calculated using a Z1 Becleman/Coulter particle counter.

[5] = test system: SW1736; test: as above; assay type: cell-based
Description: as §3

[6] = test system: human umbilical vein endothelial cells (HUVEC); test: Matrigel cord formation assay; assay type: cell-based; design: key: −: No Junctions; +: Few; ++: ˜50% of Control; +++: Same as Control; conditions: 24 hours, compared to untreated controls
Description: as §1, §2

[7] = test system: Enterobacter cloacae; test: reference broth microdilution susceptibility assay; assay type: cell-based; conditions: Table III
How it was run: (§4)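 Standardized microdilution in liquid medium; the aerobic-bacteria standard (M7-A5) applies to the bacterial species and the yeast standard (M27-A) to the fungal ones.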

[8] = test system: Streptococcus pneumoniae; test: reference broth microdilution susceptibility assay; assay type: cell-based; conditions: Table III
How it was run: as §4

[9] = test system: Neisseria gonorrhoeae; test: reference broth microdilution susceptibility assay; assay type: cell-based; conditions: Table III
How it was run: as §4

[10] = test system: Candida albicans; test: reference broth microdilution susceptibility assay; assay type: cell-based; conditions: Table III
How it was run: (§5)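 Read-out is growth susceptibility in the NCCLS reference broth microdilution format, under M27-A for the two yeasts and under M7-A5 for the two bacteria.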

[11] = test system: Staphylococcus aureus; test: reference broth microdilution susceptibility assay; assay type: cell-based; conditions: Table III
How it was run: as §4

[12] = test system: Micrococcus luteus; test: reference broth microdilution susceptibility assay; assay type: cell-based; conditions: Table III
How it was run: as §5

[13] = test system: Enterococcus faecalis; test: reference broth microdilution susceptibility assay; assay type: cell-based; conditions: Table III
How it was run: as §4

[14] = test system: Escherichia coli; test: reference broth microdilution susceptibility assay; assay type: cell-based; conditions: Table III
How it was run: as §5

[15] = test system: Stenotrophomonas maltophilia; test: reference broth microdilution susceptibility assay; assay type: cell-based; conditions: Table III
How it was run: as §4

[16] = test system: Cryptococcus neoformans; test: reference broth microdilution susceptibility assay; assay type: cell-based; conditions: Table III
How it was run: as §5

[17] = test system: microtubules in human umbilical vein endothelial cells (HUVEC); test: disruption of microtubules in HUVEC; assay type: cell-based
Description: HUVECs were isolated according to methods know to one of skill in the art (see Jaffe, E. A. et al., Culture of Human Endothelial Cells Derived From Umbilical Veins. Identification by Morphologic and Immunologic Criteria, J. Clin. Invest. 1973, 52, 2754-2756.)

[18] = test system: tubulin; test: inhibition of [3H]colchicine binding to tubulin; conditions: 1.0 μM tubulin, 5.0 μM [3H]colchicine, inhibitor at 1.0 μM, 10 minutes at 37° C.
Description: (§6) Tubulin polymerization was evaluated by turbidimetry at 350 nm using Beckman DU7400/7500 spectrophotometers as described in detail elsewhere. […] Varying concentrations of drug were preincubated with 10 μM:M ([…]) purified tubulin (See Hamel, E., et al., Separation of Active Tubulin and Microtubule-associated Proteins by Ultracentrifiigation and Isolation of a Component Causing the Formation of Microtubule Bundles, Biochemistry 1984, 23, 4173-4184). Samples were chilled on ice, GTP (0.4 mM) was added, and polymerization was followed at 30° C. The parameter measured was extent of the reaction after 20 minutes. Coichicine binding was measured as described in detail previously. Reaction mixtures contained 1.0 μM :M tubulin, 5.0:M, [^3H]colchicine (from Dupont), and inhibitor at 1.0 μM:M. Incubation was for 10 minutes at 37° C.

[19] = test system: Breast MCF-7; test: human cancer cell growth inhibition, sulforhodamine B assay; assay type: cell-based; conditions: Table I, 48 hours
How it was run: (§7)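 NCI sulforhodamine B protocol: cells exposed to compounds for 48 h, then fixed with trichloroacetic acid, stained with sulforhodamine B and read on a microplate reader.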

[20] = test system: CNS SF268; test: as above; assay type: cell-based; conditions: Table I, 48 hours
How it was run: as §7

[21] = test system: Colon KM20L2; test: as above; assay type: cell-based; conditions: Table I, 48 hours
How it was run: as §7

[22] = test system: Lung-NSC NCI-H460; test: as above; assay type: cell-based; conditions: Table I, 48 hours
How it was run: as §7

[23] = test system: Prostate DU-145; test: as above; assay type: cell-based; conditions: Table I, 48 hours
How it was run: as §7

[24] = test system: Pancreas BXPC-3; test: as above; assay type: cell-based; conditions: Table I, 48 hours
How it was run: as §7

[25] = test system: T1, purified tubulin; test: inhibition of tubulin polymerization (turbidimetry); assay type: biochemical; conditions: 10 μM tubulin, GTP 0.4 mM, 30° C., extent after 20 minutes; read-out: Inhibition of polymerization IC50 ± S.D.
T1 construct: other: 10 μM tubulin, GTP 0.4 mM, 30° C., extent after 20 minutes
Description: as §6
Tubulin Evaluations: Tubulin polymerization was evaluated by turbidimetry at […] using Beckman DU7400/7500 spectrophotometers as known to one of skill in the art. Varying concentrations of the compound were preincubated with 10 μM. […]

Molecule | Lengths of Cords ([1]; 0.0001 μg/ml) | Lengths of Cords ([1]; 0.001 μg/ml) | Number of junctions ([2]; 0.0001 μg/ml) | Relative % Growth ([3]; HUVEC, 0.00001 μg/ml) | Relative % Growth ([3]; HUVEC, 0.0001 μg/ml) | Relative % Growth ([3]; HUVEC, 0.001 μg/ml) | Relative % Growth ([3]; HUVEC, 0.01 μg/ml) | Human Umbilical Vein Endothelial Cell (HUVEC) Inhibition Values (GI50) ([3]; Table V) | Human Anaplastic Thyroid Carcinoma Cell Line Inhibition Values (GI50) KAT-4 [4] | Human Anaplastic Thyroid Carcinoma Cell Line Inhibition Values (GI50) SW1736 [5] | Range of minimum inhibitory concentration, Enterobacter cloacae [7] | Range of minimum inhibitory concentration, Streptococcus pneumoniae [8] | Range of minimum inhibitory concentration, Neisseria gonorrhoeae [9] | Range of minimum inhibitory concentration, Candida albicans [10] | Range of minimum inhibitory concentration, Staphylococcus aureus [11] | Range of minimum inhibitory concentration, Micrococcus luteus [12] | Range of minimum inhibitory concentration, Enterococcus faecalis [13] | Range of minimum inhibitory concentration, Escherichia coli [14] | Range of minimum inhibitory concentration, Stenotrophomonas maltophilia [15] | Range of minimum inhibitory concentration, Cryptococcus neoformans [16] | further results
COc1ccc(/C=C\c2cc(I)c(OC)c(I)c2)cc1O [Compound 22a, 3,5-diiodo-4,4′-dimethoxy-3′-hydroxy-z-stilbene] | +++ | + | +++ | 87% | 84% | 8% | 4% |  |  |  |  |  |  |  |  |  |  |  |  |  | Lengths of Cords ([1]; 0.01 μg/ml): −; GI50 ([3]; Homo sapiens, HUVEC, Table V, read-out: Human Umbilical Vein Endothelial Cell (HUVEC) Inhibition Values (GI50)): 0.28 ng/mL (≈ 0.000551 µM); GI50 ([4]; Homo sapiens, KAT-4): 0.039 to 0.063 µg/mL (≈ 0.0768 to 0.124 µM); GI50 ([5]; Homo sapiens, SW-1736): 1.2 µg/mL (≈ 2.36 µM); Number of junctions ([6]; 0.01 μg/ml): −
Potassium 3,5-dilodo-4,4′dimethoxy-z-stilbene 3′-O-phosphate [Compound S (Table Ia)] |  | +++ |  |  | 96% | 88% | 33% | 4.9 ng/mL | 0.38 to 0.44 µg/mL | >10 µg/mL |  |  |  |  |  |  |  |  |  |  | Lengths of Cords ([1]; 0.1 μg/ml): −; Number of junctions ([2]; 0.001 μg/ml): +++; Relative % Growth ([3]; HUVEC, 0.1 μg/ml): 15%; Number of junctions ([6]; 0.1 μg/ml): −
3-Cloro-4,4′,5-trimethoxy-3′-hydroxy-Z-stilbene [Compound 12a] |  |  |  |  |  |  |  |  |  |  | * (no inhibition at 64 μg/ml) | 32 to 64 µg/mL | 16 µg/mL | * (no inhibition at 64 μg/ml) | * (no inhibition at 64 μg/ml) | 32 µg/mL | * (no inhibition at 64 μg/ml) | * (no inhibition at 64 μg/ml) | * (no inhibition at 64 μg/ml) | 64 µg/mL | ability to disrupt microtubules in HUVEC [17]: disrupt microtubules; Inhibition of colchicine binding % inhibition ± S.D. [18]: 85 ± 4%; Human cancer cell line inhibition (GI50) Breast adn MCF-7 [19]: <1 ng/mL; Human cancer cell line inhibition (GI50) CNS SF268 [20]: <1 ng/mL; Human cancer cell line inhibition (GI50) Colon KM20L2 [21]: 0.15 µg/mL; Human cancer cell line inhibition (GI50) Lung-NSC NCI-H460 [22]: <1 ng/mL; Human cancer cell line inhibition (GI50) Prostate DU-145 [23]: <1 ng/mL; Human cancer cell line inhibition (GI50) Pancreas-a BXPC-3 [24]: 0.043 µg/mL; IC50 [25]: 1600 ± 300 nM
Potassium 3-iodo-4,4′,5-trimethoxy-z-stilbene 3′-O-phosphate [Compound 20c] | +++ | ++ | +++ | 95% | 77% | 10% | 1% | 0.25 ng/mL | 0.37 to 0.43 µg/mL | >10 µg/mL |  |  |  |  |  |  |  |  |  |  | Lengths of Cords ([1]; 0.00001 μg/ml): +++; Number of junctions ([2]; 0.00001 μg/ml): +++
COc1ccc(/C=C\c2cc(F)c(OC)c(OC)c2)cc1O [Compound 11a, 3-Fluoro-4,4′,5-trimethoxy-3′-hydroxy-Z-stilbene] |  |  |  |  |  |  |  |  |  |  | * (no inhibition at 64 μg/ml) | 64 µg/mL | 32 µg/mL | * (no inhibition at 64 μg/ml) | * (no inhibition at 64 μg/ml) | 32 to 64 µg/mL | * (no inhibition at 64 μg/ml) | * (no inhibition at 64 μg/ml) | * (no inhibition at 64 μg/ml) | 64 µg/mL | Cords length as well as junction numbers ([1]; at both 0.01 and 0.001 μg/mL compared to untreated controls): markedly reduced; ability to disrupt microtubules in HUVEC [17]: disrupt microtubules; Inhibition of colchicine binding % inhibition ± S.D. [18]: 75 ± 6%; GI50 ([19]; Homo sapiens, MCF7, read-out: Human cancer cell line inhibition (GI50) Breast adn MCF-7): < 0.01 µg/mL; GI50 ([20]; Homo sapiens, SF-268, read-out: Human cancer cell line inhibition (GI50) CNS SF268): < 0.01 µg/mL; GI50 ([21]; Homo sapiens, KM-20L2, read-out: Human cancer cell line inhibition (GI50) Colon KM20L2): 1.1 µg/mL (≈ 3.61 µM); GI50 ([22]; Homo sapiens, NCI-H460, read-out: Human cancer cell line inhibition (GI50) Lung-NSC NCI-H460): < 0.01 µg/mL; GI50 ([23]; Homo sapiens, DU-145, read-out: Human cancer cell line inhibition (GI50) Prostate DU-145): < 0.01 µg/mL; GI50 ([24]; Homo sapiens, BXPC-3, read-out: Human cancer cell line inhibition (GI50) Pancreas-a BXPC-3): 0.016 µg/mL (≈ 0.0526 µM); IC50 [25]: 1500 ± 200 nM
